# Measurements taken from patent US7981875B2, “2″ oxo-voruscharin and derivatives thereof” (priority 2002, dated 2011).
# Key:
# Capan-2 (Pancreas) = assay: MTT test, overall cell growth; format: cell-based, human; details: Capan-2 cell line
# Description: (§1) In order to characterize the in vitro activities of the compounds according to the invention, MTT tests were carried out. The MTT test, which is a well-known test in the art, is an indirect technique that rapidly measures, i.e. within 5 days, the effect of a given product on the overall cell growth. This test measures the number of metabolically active living cells that are able to transform the MTT product (3-(4,5-dimethylthiazol-2-yl)-2,5 diphenyl tetrazolium bromide), having a yellowish color, to the blue product formazan dye by mitochondrial reduction. The amount of formazan obtained at the end of the experiment is measured with a spectrophotometer and is directly proportional to the number of living cells. Determination of the optical density enables a quantitative measurement of the effect of the investigated compounds as compared to the control condition (untreated cells) and to compare it to other reference compound. […]
# (§2) After 72 hours of incubation at 37° C. with the compound (experimental conditions) or without the compound (control condition), the medium was replaced by 100 μl MTT at the concentration of 1 mg/ml dissolved in RPMI. […] The micro wells were shaken for 5 minutes and read on a spectrophotometer at the wavelengths of 570 nm corresponding to the maximum formazan absorbance wavelength, and of 630 nm, which is the background noise wavelength. […]
# PC-3 (Prostate) = assay: MTT test, overall cell growth; format: cell-based, human; details: PC-3 cell line
# Description: as §1, §2
# J82 human cancer cells = assay: Cell cycle kinetics by flow cytometry (propidium iodide); format: cell-based; parameters: key to Effect on cell cycle kinetics, G0/G1 / Effect on cell cycle kinetics, S / Effect on cell cycle kinetics, G2/M: n.s. means no significant; ** means highly significant; *** very highly significant
# Description: (§3) Cell lines were seeded in flasks (25 cm^2 area) containing 7 ml of culture medium. After 48 hours incubation at 37° C. the cell culture medium was replaced by a fresh medium in which the substance to be tested had been dissolved at the different concentrations required. Uscharin and 2″ oxo-voruscharin were tested at concentrations, which kill 50% and 30% of the cell population, represented by the IC50 and IC30 values, respectively. After 24 or 72 hours of treatment the cells were harvested in suspension, washed in Phosphate Buffer Saline (PBS) at 4° C. and permeabilized with 70% ethanol (at 4° C.) overnight at −20° C. The cells were then washed with PBS and incubated with propidium iodide solution (80 μg/ml) for 30 minutes at 37° C. and afterward at 4° C. overnight. Ribonuclease A (3% V/V) was added to the PI solution to break doubled-stranded RNA. The portrait of the cell cycle was established for each sample. Software incorporated into the flow cytometer was used to define precisely the percentage of cells in the different cell cycle phases. Each cell cycle phase was reported in terms of peak surface and calculated as a percentage. The surface of the entire cell cycle was 100%. Each experiment was carried out 3 times. The mean percentage of each different phase and the standard error of the related mean were calculated. Each cell cycle phase of a given condition was compared with the same cell cycle phase of control. The non-treated cells constituted control.
# (§4) Uscharin and 2″ oxo-voruscharin are highly toxic to human tumor cell lines. The concentrations used in the flow cytometry experiments were chosen in accordance with the MTT results (example 2). Three human cancer cell lines, Hs683, J82, and HCT-15 were tested and doses that killed 30 and 50 percent of the cells were applied to investigate whether uscharin and 2″ oxo-voruscharin promoted an accumulation in one of the cell cycle phases when the cell cultures were treated for 24 or 72 hours with increasing concentrations of the compounds. The IC50 and IC30 values for uscharin and 2″ oxo-voruscharin corresponding to the three tested cell lines are represented in Table E.
# Hs683 human cancer cells = assay: as above; format: cell-based; parameters: key to Effect on cell cycle kinetics, G0/G1 / Effect on cell cycle kinetics, S / Effect on cell cycle kinetics, G2/M: n.s. means no significant; ** means highly significant; *** very highly significant
# Description: as §3, §4
SMILES,IC50 (Capan-2 (Pancreas)),IC50 (PC-3 (Prostate)),"Effect on cell cycle kinetics, G0/G1 (J82 human cancer cells; J82, 24 h)","Effect on cell cycle kinetics, G2/M (J82 human cancer cells; J82, 24 h)","Effect on cell cycle kinetics, S (J82 human cancer cells; J82, 24 h)","Effect on cell cycle kinetics, G0/G1 (J82 human cancer cells; J82, 72 h)","Effect on cell cycle kinetics, G2/M (J82 human cancer cells; J82, 72 h)","Effect on cell cycle kinetics, S (J82 human cancer cells; J82, 72 h)","cell cycle, S-population (J82 human cancer cells; J82, only after 72 hours of treatment at both concentrations tested)","cell cycle, G2/M phase (Hs683 human cancer cells; Hs683, 8.3×10^−9 M after 24 hours and both concentrations for 72 hours, significant)","Effect on cell cycle kinetics, G0/G1 (Hs683 human cancer cells; Hs683, 24 h)","Effect on cell cycle kinetics, G2/M (Hs683 human cancer cells; Hs683, 24 h)","Effect on cell cycle kinetics, S (Hs683 human cancer cells; Hs683, 24 h)","Effect on cell cycle kinetics, G0/G1 (Hs683 human cancer cells; Hs683, 72 h)","Effect on cell cycle kinetics, G2/M (Hs683 human cancer cells; Hs683, 72 h)","Effect on cell cycle kinetics, S (Hs683 human cancer cells; Hs683, 72 h)"
CC1CC2(NC(=O)CS2)C2(O)OC3CC4(CO)C(CCC5C4CCC4(C)C(C6=CC(=O)OC6)CCC54O)CC3OC2O1 (stereo not shown) [Compound B],1 nM,5 to 10 nM,,,,,,,,,,,,,,
"CC1CC2(NC(=O)CS2)C2(O)OC3CC4(C=O)C(CCC5C4CCC4(C)C(C6=CC(=O)OC6)CCC54O)CC3OC2O1 (stereo not shown) [2″oxo-voruscharin, 2″ oxo-voruscharin]",,,n.s.,n.s.,n.s.,n.s.,n.s.,**,increase of S-population,accumulation in G2/M phase,n.s.,***,n.s.,n.s.,**,n.s.
